pIC50: −log10 of the molar value.

In experiment [1] the target is T1, His-GST-TVMV-hRIPK1(1-324) (Homo sapiens, UniProt Q13546).
T1 construct: 1 nM His-GST-TVMV-hRIPK1(1-324) in FRET Buffer; made in house; host or cells: Spodoptera frugiperda (Sf9) insect cells, baculovirus (Bac-to-Bac)
T1 sequence (Q13546 1-324): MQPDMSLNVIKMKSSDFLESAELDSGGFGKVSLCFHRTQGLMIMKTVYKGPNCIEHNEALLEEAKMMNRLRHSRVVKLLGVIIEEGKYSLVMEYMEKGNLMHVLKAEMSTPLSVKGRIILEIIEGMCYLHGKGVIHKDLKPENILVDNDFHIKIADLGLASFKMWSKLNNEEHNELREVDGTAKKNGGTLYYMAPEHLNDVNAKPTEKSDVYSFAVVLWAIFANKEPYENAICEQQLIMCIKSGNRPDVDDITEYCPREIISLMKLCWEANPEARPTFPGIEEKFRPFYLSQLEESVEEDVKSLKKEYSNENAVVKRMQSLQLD
Kind of experiment: RIPK1 HTRF Binding Assay. The note with it: HTRF probe displacement, 1 h at rt. As to the method: A solution was prepared containing 0.2 nM Anti GST-Tb (Cisbio, 61GSTTLB), 90.6 nM probe and 1 nM His-GST-TVMV-hRIPK1(1-324) in FRET Buffer (20 mM HEPES, 10 mM MgCl2, 0.015% Brij-35, 4 mM DTT, 0.05 mg/mL BSA). Using Formulatrix Tempest, the detection antibody/enzyme/probe solution ([…]) was dispensed into wells of a 1536 plate (Black Low Binding Polystyrene 1536 Plate (Corning, 3724)) containing 10 nL of compounds of interest at appropriate concentration in DMSO. The plate was incubated at rt for 1 h. FRET was measured using the EnVision plate reader (Excitation: 340 nm, Emission: 520 nm/[…]). Total signal (0% inhibition) was calculated from wells containing 10 nL DMSO only.
Cloning and Baculovirus Expression of RIPK1 Construct
The coding region of human RIPK1(1-324) flanked by NdeI site at 5′ end and stop codon TGA and XhoI site at 3′ end was codon optimized and gene synthesized at GenScript USA Inc. (Piscataway, NJ) and subcloned into a modified pFastBac1 vector (Invitrogen, Carlsbad, CA) with N-terminal His-GST-TVMV tag, to generate His-GST TVMV-hRIPK1(1-324)-pFB. The fidelity of the synthetic fragment was confirmed by sequencing. Baculovirus was generated for the construct using the Bac-to-Bac baculovirus expression system (Invitrogen) according to the manufacturer's protocol. Briefly, recombinant bacmid was isolated from transformed DH10Bac E. coli competent cells 20 (Invitrogen) and used to transfect Spodoptera frugiperda (Sf9) insect cells (Invitrogen). Baculovirus was harvested 72 hours post transfection and a virus stock was prepared by infecting fresh Sf9 cells at a 1/1000 (v/v) ratio for 66 hours. For large scale protein production, Sf9 cells (Expression System, Davis, CA) grown in ESF921 insect medium (Expression System) at 2×10^6 cells/ml were infected with virus stock at a 1/100 (v/v) ratio for 66 hours. The production was carried out either at a 10 L scale in a 22 L cellbag (GE Healthcare Bioscience, Pittsburgh, PA) or at a 20 L scale in a 50 L cellbag using WAVE-Bioreactor System 20/50 (GE Healthcare Bioscience). The infected cells were harvested by centrifugation at 2000 rpm for 20 min at 4° C. in a SORVALL® RC12BP centrifuge. The cell pellets was stored at −70° C. before protein was purified.
Purification of His-GST-TVMV-hRIPK1(1-324)
RIPK1 containing cell paste was resuspended in 50 mM Tris pH 7.5, 150 mM NaCl, 10 mM imidazole, 5% glycerol, 5 mM MgSO4, 1 mM TCEP, 25 U/ml Benzonase, and Complete Protease Inhibitor tablets (1/50 ml, Roche Diagnostics, Indianapolis, IN). The cells were lysed by nitrogen cavitation using an unstirred pressure vessel @ 525 PSI (Parr Instrument Company, Moline, IL). The suspension was clarified by centrifugation at 136,000×g for 40 min, at 4° C. The lysate was decanted from the pellet and passed through a 5 ml NiNTA Superflow cartridge (Qiagen, Valencia, CA) using an AKTA Pure (GE Healthcare). Column was eluted with 10 CV linear gradient into 50 mM Tris 7.5, 150 mM NaCl, 500 mM imidazole, 5% glycerol, 1 mM TCEP. Peak fractions were pooled and loaded directly onto 5 ml GSTrap 4B column (GE Healthcare). Column was washed with 50 mM Tris 7.0, 150 mM NaCl, […], 1 mM DTT and eluted in 10 CV linear gradient into 50 mM Tris 8.0, 150 mM NaCl, 20 mM reduced glutathione, 50% glycerol, 1 mM DTT. Fractions identified by SDS-PAGE as containing RIPK1 were pooled and concentrated using 30 kDa MWCO spin concentrators (Amicon Ultra-15, Millipore, Billerica, MA) and loaded onto a HiLoad 26/600 Superdex 200 column (GE Healthcare) equilibrated in 25 mM Tris 7.5, 150 mM NaCl, 2 mM TCEP, […]. The RTPK1 protein eluted as a dimer off the SEC column. The yield was ˜8 mg/L with a purity […] as determined by Coomassie stain SDS-PAGE gel analysis. […] Protein was aliquoted and stored at −80° C. Using these assays, the IC50 values of the following compounds were determined.
For orientation: Time-resolved FRET reads energy transfer from a long-lived donor to a nearby acceptor.

Experiment [2] concerns MLKL phosphorylation in HT29-L23 human colorectal adenocarcinoma cells. Kind of experiment: MLKL Phosphorylation High-Content Assay. The format is cell-based. The note with it: Homo sapiens, necroptosis induced with TNFα, SMAC mimetic and Z-VAD, 6 h, read-out: pMLKL (IC50).

In the case of `CNC(=O)c1n[nH]c2cc(-c3nc(C(=O)NCc4cc(OC(F)(F)F)ccc4F)cs3)ccc12` [Example 20, N-(2-fluoro-5-(trifluoromethoxy)benzyl)-2-(3-(methylcarbamoyl)-1H-indazol-6-yl)thiazole-4-carboxamide], the pIC50 in experiment [1] was 6.40; in experiment [2], 6.09.
The like results for `CNC(=O)c1n[nH]c2cc(-c3ncc(C(=O)NCCC(C)c4ccccc4)s3)ccc12` (stereo not shown) [Example 24, 2-(3-(methylcarbamoyl)-1H-indazol-6-yl)-N-(3-phenylbutyl)thiazole-5-carboxamide] were, in that order, 6.55 and 6.15.
For `CNC(=O)c1n[nH]c2cc(-c3nc(C(=O)NCC[C@@H](O)c4ccc(Cl)cc4)cs3)ccc12` [Example 22, (R)-N-(3-(4-chlorophenyl)-3-hydroxypropyl)-2-(3-(methylcarbamoyl)-1H-indazol-6-yl)thiazole-4-carboxamide] the same measures were 6.48 and 5.92.
The like results for `CNC(=O)c1n[nH]c2cc(-c3cc(C)c(C(=O)NCCC(C)c4ccccc4)s3)ccc12` (stereo not shown) [Example 11, N-methyl-6-(4-methyl-5-((3-phenylbutyl)carbamoyl)thiophen-2-yl)-1H-indazole-3-carboxamide] were, in that order, 8.74 and 8.70.
`CNC(=O)c1n[nH]c2cc(-c3csc(C(=O)NCC[C@@H](O)c4ccc(Cl)cc4)c3)ccc12` [Example 3, (R)-6-(5-((3-(4-chlorophenyl)-3-hydroxypropyl)carbamoyl)thiophen-3-yl)-N-methyl-1H-indazole-3-carboxamide]: the results for the pIC50 in experiment [1] and in experiment [2] were 7.33 and 6.70, respectively.
For `CNC(=O)c1n[nH]c2cc(-c3nc(C)c(C(=O)NCCC(C)c4ccccc4)s3)ccc12` (stereo not shown) [Example 15, 4-methyl-2-(3-(methylcarbamoyl)-1H-indazol-6-yl)-N-(3-phenylbutyl)thiazole-5-carboxamide] the same measures were 8.08 and 7.36.
As for `CNC(=O)c1n[nH]c2cc(-c3nc(C(=O)NCC[C@@H](O)c4ccc(Cl)cc4)c(C)n3C)ccc12` [Example 33, (R)-6-(4-((3-(4-chlorophenyl)-3-hydroxypropyl)carbamoyl)-1,5-dimethyl-1H-imidazol-2-yl)-N-methyl-1H-indazole-3-carboxamide], the figures for the pIC50 in experiment [1] and in experiment [2] were 6.24 and 5.66, respectively.
For `CNC(=O)c1n[nH]c2cc(-c3nc(C(=O)NCCC(C)c4ccccc4)cs3)ccc12` (stereo not shown) [Example 21, 2-(3-(methylcarbamoyl)-1H-indazol-6-yl)-N-(3-phenylbutyl)thiazole-4-carboxamide] the same measures were 6.77 and 6.09.

A word on the pIC50: it is the negative decadic logarithm of the IC50, by convention in mol/L.

Values taken from patent US12275721B2, “Indazole carboxamides as kinase inhibitors” (BRISTOL-MYERS SQUIBB COMPANY, priority 2019, dated 2025).
